Measurements taken from paper PMC4724696 (Acta Pharmaceutica Sinica. B, 2016).

Experiments:
Assay type in all cases: cell-based
[1] = system: A375; assay: Cell proliferation assay; conditions: Homo sapiens, A-375, 72 h, read-out: IC50 in cancer cell lines
[2] = system: SK-OV-3; assay: Cell proliferation assay; conditions: Homo sapiens, SK-OV-3, 72 h, read-out: IC50 in cancer cell lines
[3] = system: BxPC3; assay: Cell proliferation assay; conditions: Homo sapiens, BXPC-3, 72 h, read-out: IC50 in cancer cell lines
[4] = system: acetylation of histones H3, H4 and tubulin in HCT-116 colorectal cancer cells; assay: Western Blot analysis of Ac-H3, Ac-H4 and Ac-tubulin; conditions: HCT-116 cells, various concentrations, 24 h

For `O=C(CCCCCCC(=O)Nc1ccccc1)NO` [SAHA, Vorinostat], the IC50 [1] was 1860 ± 420 nM, the IC50 [2] was 3570 ± 740 nM and the IC50 [3] was 2240 ± 610 nM. The “acetylation of histones H3, H4 and tubulin” value [4] was “Increased acetylated histones and tubulin levels”.
